{
  "source": "paper PMC11403612",
  "about": "“Preparation and Preclinical Characterization of a Simple Ester for Dual Exogenous Supply of Lactate and Beta-hydroxybutyrate” (Journal of Agricultural and Food Chemistry, 2024)",
  "test": "Stability of LaKe in plasma, human",
  "assay_type": "in vitro ADME",
  "settings": "thawed); human plasma (frozen)",
  "procedure": "The in vitro stability of LaKe was evaluated following incubation in simulated gastric fluid (SGF), simulated intestinal fluid (SIF), fresh and frozen plasma (rats and humans, respectively), and the presence of hepatocytes (rats and humans) and liver microsomes (rats and humans). At the chosen time points, the mixtures were analyzed by LC-MS/MS to quantify the remaining LaKe and all assays included at least one control compound with known pharmacokinetic properties. […]\ncentrifuged at 4000 rpm, 4℃ for 20 min. 60 μL of supernatant was mixed with 180 μL of purified water for subsequent LC/MS/MS analysis.\nLC-MS/MS Condition: ACQUITY UPLC BEH C18 1.7um 2.1 * 50mm Column (Part No.186002350). Mobile phase: A: 0.1% Formic Acid in Water; B: 0.1% Formic Acid in ACN.\nStability of LaKe in simulated intestinal fluid (SIF)\nPreparation of SIF-solution: 0.136 g KH2PO4 and 0.064 g pancreatin was dissolved H2O to a total volume of solution 20 mL. The pH of the test solution was adjusted to 6.80 ± 0.05.\nProcedure: 2 μL of a 10mg/ml working solution of LaKe in DMSO was spiked into 96-deep-well plates corresponding to timepoints T0, T60, T120, T360 and T1440. Experiments were performed in duplicate. 198 μL of SIF solution was then transferred to the individual wells (except T0) to reach 0.1mg/ml as the final test concentration for each time point (60, 120, 360, 1440 minutes). […]",
  "data": [
    {"compound": "CC(O)CCOC(=O)C(C)O", "note": "(stereo not shown) [LaKe, 3-hydroxybutyl 2-hydroxypropanoate]", "values": [
      {"measurement": "half-life at 2 µM", "value": "< 30", "unit": "min"}
    ]}
  ]
}
